{"source": "patent US9901592B2", "about": "(priority 2008, dated 2018)", "format_in_all_cases": "cell-based", "key": {"S. pyogenes [1]": {"system": "S. pyogenes", "assay": "microbe, parasite or virus in culture", "conditions": "for MIC: Streptococcus pyogenes"}, "S. pneumoniae": {"system": "S. pneumoniae"}, "M. hominis": {"system": "M. hominis", "conditions": "M. hominis (13 isolates)"}, "S. pyogenes [2]": {"system": "S. pyogenes"}}, "note": "Where “and” joins values, the source holds several entries; their conditions need not be identical. Identical values can stand only once. Like-named read-outs stand apart in the source and are kept apart here.", "data": [{"smiles": "CCC[C@@H]1C[C@@H](C(=O)N[C@@H]([C@H]2O[C@H](SC)[C@H](O)[C@@H](O)[C@H]2O)[C@H](C)Cl)N(C)C1", "note": "[CLN, clindamycin]", "values": [{"measurement": "strains with resistant clones / strains tested", "setting": "S. pyogenes [1]; S. pyogenes", "value": "2/3 and 2/4"}, {"measurement": "MIC", "setting": "S. pyogenes [1]; read-out: Initial MIC, strain 237 Macrolide-R [LA mutation], parent", "value": 0.06, "unit": "mg/L"}, {"measurement": "MIC", "setting": "S. pyogenes [1]; read-out: Initial MIC, strain 2011 Macrolide-R [mef(A)], parent", "value": 0.06, "unit": "mg/L"}, {"measurement": "MIC", "setting": "S. pyogenes [1]; read-out: Initial MIC, strain 2094 Macrolide-R [erm(A)], parent", "value": 0.06, "unit": "mg/L"}, {"measurement": "MIC", "setting": "S. pyogenes [1]; read-out: Initial MIC, strain 2132 Macrolide-S, parent", "value": 0.06, "unit": "mg/L"}, {"measurement": "MIC", "setting": "S. pyogenes [1]; read-out: Initial MIC, strain 2368 Macrolide-R [erm(B)], parent", "value": "> 64", "unit": "mg/L"}, {"measurement": "MIC", "setting": "S. pyogenes [1]; read-out: MIC of parents of resistant clones, S. pyogenes", "value": 0.06, "unit": "mg/L"}, {"measurement": "MIC", "setting": "S. pyogenes [1]; read-out: Parental MICs, S. pyogenes, 5 strains with varying resistotypes", "value": 0.06, "unit": "mg/L"}, {"measurement": "MIC", "setting": "S. pyogenes [1]; read-out: Selected Resistance (MIC), strain 237 Macrolide-R [LA mutation], after serial passages in the drug", "value": 0.5, "unit": "mg/L"}, {"measurement": "MIC", "setting": "S. pyogenes [1]; read-out: Selected Resistance (MIC), strain 2011 Macrolide-R [mef(A)], after serial passages in the drug", "value": 0.06, "unit": "mg/L"}, {"measurement": "MIC", "setting": "S. pyogenes [1]; read-out: Selected Resistance (MIC), strain 2094 Macrolide-R [erm(A)], after serial passages in the drug", "value": "> 64", "unit": "mg/L"}, {"measurement": "MIC", "setting": "S. pyogenes [1]; read-out: Selected Resistance (MIC), strain 2132 Macrolide-S, after serial passages in the drug", "value": 0.06, "unit": "mg/L"}, {"measurement": "days until resistant clones (MIC increase)", "setting": "S. pyogenes [1]; daily passages, max. 50", "value": "34 to 43", "unit": "days"}, {"measurement": "Retest MIC after 10 Antibioticfree Subcultures", "setting": "S. pyogenes [1]; strain 237 Macrolide-R [LA mutation], clone selected with CEM-101", "value": 0.03, "unit": "mg/L"}, {"measurement": "Retest MIC after 10 Antibioticfree Subcultures", "setting": "S. pyogenes [1]; strain 237 Macrolide-R [LA mutation], clone selected with CLN", "value": 1, "unit": "mg/L"}, {"measurement": "Retest MIC after 10 Antibioticfree Subcultures", "setting": "S. pyogenes [1]; strain 2011 Macrolide-R [mef(A)], clone selected with AZI", "value": 0.06, "unit": "mg/L"}, {"measurement": "Retest MIC after 10 Antibioticfree Subcultures", "setting": "S. pyogenes [1]; strain 2094 Macrolide-R [erm(A)], clone selected with AZI", "value": 0.06, "unit": "mg/L"}, {"measurement": "Retest MIC after 10 Antibioticfree Subcultures", "setting": "S. pyogenes [1]; strain 2094 Macrolide-R [erm(A)], clone selected with CEM-101", "value": 0.06, "unit": "mg/L"}, {"measurement": "Retest MIC after 10 Antibioticfree Subcultures", "setting": "S. pyogenes [1]; strain 2094 Macrolide-R [erm(A)], clone selected with CLN", "value": ">64", "unit": "mg/L"}, {"measurement": "Retest MIC after 10 Antibioticfree Subcultures", "setting": "S. pyogenes [1]; strain 2094 Macrolide-R [erm(A)], clone selected with CLR", "value": 0.06, "unit": "mg/L"}, {"measurement": "Retest MIC after 10 Antibioticfree Subcultures", "setting": "S. pyogenes [1]; strain 2094 Macrolide-R [erm(A)], clone selected with TEL", "value": ">64", "unit": "mg/L"}, {"measurement": "Retest MIC after 10 Antibioticfree Subcultures", "setting": "S. pyogenes [1]; strain 2132 Macrolide-S, clone selected with AZI", "value": 0.03, "unit": "mg/L"}, {"measurement": "Retest MIC after 10 Antibioticfree Subcultures", "setting": "S. pyogenes [1]; strain 2368 Macrolide-R [erm(B)], clone selected with CEM-101", "value": ">64", "unit": "mg/L"}, {"measurement": "Retest MIC after 10 Antibioticfree Subcultures", "setting": "S. pyogenes [1]; strain 2368 Macrolide-R [erm(B)], clone selected with TEL", "value": ">64", "unit": "mg/L"}, {"measurement": "single step mutation frequency", "setting": "S. pneumoniae; strain 1077 Macrolide-S, 2 × MIC", "value": "<3.8 × 10^−10"}, {"measurement": "single step mutation frequency", "setting": "S. pneumoniae; strain 1077 Macrolide-S, 4 × MIC", "value": "<3.8 × 10^−10"}, {"measurement": "single step mutation frequency", "setting": "S. pneumoniae; strain 1077 Macrolide-S, 8 × MIC", "value": "<3.8 × 10^−10"}, {"measurement": "single step mutation frequency", "setting": "S. pneumoniae; strain 1635 Macrolide-R [erm(A)], 2 × MIC", "value": "7.3 × 10^−7"}, {"measurement": "single step mutation frequency", "setting": "S. pneumoniae; strain 1635 Macrolide-R [erm(A)], 4 × MIC", "value": "5.5 × 10^−7"}, {"measurement": "single step mutation frequency", "setting": "S. pneumoniae; strain 1635 Macrolide-R [erm(A)], 8 × MIC", "value": "5.6 × 10^−7"}, {"measurement": "single step mutation frequency", "setting": "S. pneumoniae; strain 2686 Macrolide-R [L4 mutation], 2 × MIC", "value": "<1.2 × 10^−9"}, {"measurement": "single step mutation frequency", "setting": "S. pneumoniae; strain 2686 Macrolide-R [L4 mutation], 4 × MIC", "value": "<1.2 × 10^−9"}, {"measurement": "single step mutation frequency", "setting": "S. pneumoniae; strain 2686 Macrolide-R [L4 mutation], 8 × MIC", "value": "<1.2 × 10^−9"}, {"measurement": "single step mutation frequency", "setting": "S. pneumoniae; strain 3009 Macrolide-R [23S rRNA mutation], 2 × MIC", "value": "1.7 × 10^−4"}, {"measurement": "single step mutation frequency", "setting": "S. pneumoniae; strain 3009 Macrolide-R [23S rRNA mutation], 4 × MIC", "value": "7.3 × 10^−9"}, {"measurement": "single step mutation frequency", "setting": "S. pneumoniae; strain 3009 Macrolide-R [23S rRNA mutation], 8 × MIC", "value": "<1.2 × 10^−10"}, {"measurement": "single step mutation frequency", "setting": "S. pneumoniae; strain 3665 Macrolide-R [mef(A)], 2 × MIC", "value": "<2.4 × 10^−10"}, {"measurement": "single step mutation frequency", "setting": "S. pneumoniae; strain 3665 Macrolide-R [mef(A)], 4 × MIC", "value": "<2.4 × 10^−10"}, {"measurement": "single step mutation frequency", "setting": "S. pneumoniae; strain 3665 Macrolide-R [mef(A)], 8 × MIC", "value": "<2.4 × 10^−10"}, {"measurement": "single step mutation frequency", "setting": "S. pneumoniae; strain 7127 Macrolide-S [S20N in L4, A105V in L22], 2 × MIC", "value": "<2.9 × 10^−8"}, {"measurement": "single step mutation frequency", "setting": "S. pneumoniae; strain 7127 Macrolide-S [S20N in L4, A105V in L22], 4 × MIC", "value": "<2.9 × 10^−8"}, {"measurement": "single step mutation frequency", "setting": "S. pneumoniae; strain 7127 Macrolide-S [S20N in L4, A105V in L22], 8 × MIC", "value": "<2.9 × 10^−8"}, {"measurement": "MIC Range", "setting": "M. hominis", "value": "≦0.008-0.031 μg/mL"}, {"measurement": "MIC50", "setting": "M. hominis; Metamycoplasma hominis, read-out: MIC50", "value": "≤ 0.008", "unit": "mg/L"}, {"measurement": "MIC90", "setting": "M. hominis; Metamycoplasma hominis, read-out: MIC90", "value": 0.016, "unit": "mg/L"}, {"measurement": "single step mutation frequency", "setting": "S. pyogenes [2]; strain 237 Macrolide-R [L4 mutation], 2 × MIC", "value": "<1.0 × 10^−10"}, {"measurement": "single step mutation frequency", "setting": "S. pyogenes [2]; strain 237 Macrolide-R [L4 mutation], 4 × MIC", "value": "<1.0 × 10^−10"}, {"measurement": "single step mutation frequency", "setting": "S. pyogenes [2]; strain 237 Macrolide-R [L4 mutation], 8 × MIC", "value": "<1.0 × 10^−10"}, {"measurement": "single step mutation frequency", "setting": "S. pyogenes [2]; strain 2011 Macrolide-R [mef(A)], 2 × MIC", "value": "<1.0 × 10^−10"}, {"measurement": "single step mutation frequency", "setting": "S. pyogenes [2]; strain 2011 Macrolide-R [mef(A)], 4 × MIC", "value": "<1.0 × 10^−10"}, {"measurement": "single step mutation frequency", "setting": "S. pyogenes [2]; strain 2011 Macrolide-R [mef(A)], 8 × MIC", "value": "<1.0 × 10^−10"}, {"measurement": "single step mutation frequency", "setting": "S. pyogenes [2]; strain 2094 Macrolide-R [erm(A)], 2 × MIC", "value": "2.1 × 10^−7"}, {"measurement": "single step mutation frequency", "setting": "S. pyogenes [2]; strain 2094 Macrolide-R [erm(A)], 4 × MIC", "value": "1.3 × 10^−7"}, {"measurement": "single step mutation frequency", "setting": "S. pyogenes [2]; strain 2094 Macrolide-R [erm(A)], 8 × MIC", "value": "1.1 × 10^−7"}, {"measurement": "single step mutation frequency", "setting": "S. pyogenes [2]; strain 2132 Macrolide-S, 2 × MIC", "value": "<7.7 × 10^−11"}, {"measurement": "single step mutation frequency", "setting": "S. pyogenes [2]; strain 2132 Macrolide-S, 4 × MIC", "value": "<7.7 × 10^−11"}, {"measurement": "single step mutation frequency", "setting": "S. pyogenes [2]; strain 2132 Macrolide-S, 8 × MIC", "value": "<7.7 × 10^−11"}]}]}
